# Experimental data from patent US20250135012A1, “DENDRIMER CONJUGATES OF SMALL MOLECULE BIOLOGICS FOR INTRACELLULAR DELIVERY” (The Johns Hopkins University, priority 2021, published 2025).
# Non-standard residues stand in square brackets, D forms with d. Residues, ends and D or L forms follow the SMILES beside them. Cya = N[C@@H](CS(=O)(=O)O)C(=O)O
# Tested on: VEGF-A
# Assay: Choroid VEGF-A qPCR
# Type: in vivo, Brown Norway rats
# Conditions: 7 and 14 days
# Description: In brief, 500 μL of T-Per supplemented with PHOSSTOP® and proteinase inhibitor cocktail was added to tubes containing dissected choroid. A scoop of 1.6 mm steel homogenization beads was added to each sample and then placed in […]® LT (Qiagen) at an oscillation frequency of 50/s for 15 minutes. For qPCR, 200 μL of TRIZOL® was added to tubes containing choroid and a scoop of 1.6 mm steel homogenization beads was added. The samples were placed in […]® LT at an oscillation frequency of 50/s for 15 minutes.
# 100 μL of chloroform was added to the Trizol suspension and the aqueous phase was separated with a centrifuge at 10K RPM at 4° C. for 15 minutes. 400 μL of 2-propanol was added to the aqueous solution and spun again to pellet the RNA. The RNA was washed with 70% ethanol solution, pelleted again, and re-suspended in DEPC (ultrapure treated to inactivated enzymes) water.
# To convert RNA to complementary DNA, 2 μg of RNA was converted using a High-Capacity cDNA Reverse Transcription Kit (Applied Biosystems, Foster City, CA). Samples were analyzed using STEPONE PLUS® real-time PCR system (Applied Biosystems) with SYBR Green reagent (ThermoFisher Scientific). Relative expression was quantified with ΔΔCt calculations normalized to controls. Primers for GAPDH was obtained from Bio-Rad Laboratories (Hercules, CA). Primers were purchased from Integrated DNA Technologies (Coralville, IA). […]
smiles,measurement,value
C[C@@H](O)[C@H](NC(=O)[C@H](CS(=O)(=O)O)NC(=O)CNC(=O)[C@H](CCCNC(=N)N)NC(=O)CN)C(=O)N1CCC[C@H]1C(=O)O [ALG-1001] (H-GRG[Cya]TP-OH; N-terminus and C-terminus assumed),VEGF-A production (qPCR),lower VEGF-A production at 14 days only
